Test results from patent publication US20260297542A1, “HERBICIDE RESISTANT PLANTS” (SYNGENTA CROP PROTECTION AG, priority 2023, published 2026).
Residue numbers refer to the chain shown, from its start.

Legend:
[1] = molecular target: T1, AtPPO1 S305L Y361T V365L T431R L479M (SEQ ID NO.130) (Arabidopsis thaliana, UniProt P55826, L479M/S305L/T431R/V365L/Y361T); assay: fluorescent Protoporphyrinogen Oxidase assay, crude extract; format: biochemical; conditions: read-out: percentage inhibition
T1 construct: made in house; host or cells: E. coli BL21 (DE3) hemG, crude extract
T1 sequence (P55826 35-537 S305L/Y361T/V365L/T431R/L479M): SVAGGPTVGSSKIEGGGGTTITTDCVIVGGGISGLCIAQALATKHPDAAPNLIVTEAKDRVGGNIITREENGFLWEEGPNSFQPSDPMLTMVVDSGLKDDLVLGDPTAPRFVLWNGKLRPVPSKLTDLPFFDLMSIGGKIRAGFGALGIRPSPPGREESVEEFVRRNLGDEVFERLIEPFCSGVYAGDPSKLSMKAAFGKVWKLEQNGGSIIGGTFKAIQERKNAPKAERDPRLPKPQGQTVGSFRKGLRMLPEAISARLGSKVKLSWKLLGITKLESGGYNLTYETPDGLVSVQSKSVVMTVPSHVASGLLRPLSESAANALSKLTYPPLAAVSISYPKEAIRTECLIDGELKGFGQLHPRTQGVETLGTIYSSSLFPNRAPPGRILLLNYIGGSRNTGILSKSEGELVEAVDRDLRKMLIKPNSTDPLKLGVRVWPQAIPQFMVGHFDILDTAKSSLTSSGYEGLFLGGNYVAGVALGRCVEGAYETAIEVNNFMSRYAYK
Experimental: (§1) A pET24 plasmid containing a DNA sequence encoding each identified variant mutant of AtPPO1 derived from Arabidopsis thaliana, codon-optimised for expression in E. coli, and under control of a T7 promoter, was synthesised by Twist Bioscience. This plasmid was expressed in E. coli BL21 (DE3) hemG with 50 μg/mL kanamycin and 25 μg/mL chloramphenicol selection. Overnight cultures grown at 37° C. were used to inoculate 150 ml AIM (AIM-Terrific Broth Base including Trace elements, Formedium) in 500 ml shake flasks at a ratio of 1:100. Cultures were grown at 37° C., 200 rpm for 3 hours and then overnight at 26° C. Cells were harvested by 4° C. centrifugation for 20 minutes at 600 rpm. Cells were stored at −80° C. until extraction. 0.5-1 g of cell pellet from was thawed and resuspended in ratio of 1:1 in lysis buffer (20 mM Tris pH8, 500 mM sodium chloride, 10% glycerol, 1× complete Protease EDTA-free Inhibitor Tablet (Roche)). The resuspension was sonicated at 50% using 10-20 cycles of 10 seconds, 20 seconds off. After sonication Triton X-100 was added to the lysates at a final concentration of 0.5%. The lysates were centrifuged at 13.00 rpm for 10 min at 4° C. The crude extracts (i.e, supernatants) were stored at −80° C. Protein concentration was measured and calculated using the absorbance at 280 nm. Extracts were diluted 1 in 4 and 10 uL was analysed by SDS PAGE.
(§2) Variant crude extracts were assayed in a fluorescent Protoporphyrinogen Oxidase assay in black 384 well plates with a clear bottom. The total volume of the reaction mixture was 100 ul and contained 100 mM K2HPO4 pH7.2, 1 mM Na2EDTA, 5 mM DTT, 20% glycerol (v/v), 0.025% Tween 20 (v/v). Reactions were started with addition of 1 uM protoporphyrinogen IX final assay concentration. Fluorescence was monitored over 30 min using a Tecan plate reader with an excitation wavelength of 405 nm, emission wavelength of 635 nm, gain of 90 and 15 flashes. 10 ul of 3-fold serial dilution of crude extract in 100 mM K2HPO4 pH7.2, 1 mM Na2EDTA, 5 mM DTT, 20% glycerol (v/v), 0.05% Tween 20 (v/v) was tested in the assay against 1% DMSO and 100 ppm herbicide B to determine the correct amount of crude extract to add to the assay to observe activity. 10 ul of the appropriate crude extract dilution was then tested in the fluorescent Protoporphyrinogen Oxidase assay against DMSO and 10-fold dose response of each compound (herbicides A to E) with a top rate of 100 ppm.
(§3) The percentage inhibition was calculated as the activity in the presence of one of four concentrations of each herbicide compound A to E (note that the compounds labelled as A to E are identified hereinabove in the relevant section of the description) as a percentage of the enzyme activity in DMSO (Table 5).

[2] = molecular target: T2, AtPPO1 S305L Y426V (SEQ ID NO.125) (Arabidopsis thaliana, UniProt P55826, S305L/Y426V); assay: as above; format: biochemical; conditions: read-out: percentage inhibition
T2 construct: made in house; host or cells: E. coli BL21 (DE3) hemG, crude extract
T2 sequence (P55826 35-537 S305L/Y426V): T1 sequence (P55826 35-537 S305L/Y361T/V365L/T431R/L479M) with T327Y, L331V, Y392V, R397T, M445L
Experimental: as §1, §2, §3

Compound | inhibition at 0.1 ppm [1] [%] | inhibition at 1 ppm [1] [%] | inhibition at 10 ppm [1] [%] | inhibition at 100 ppm [1] [%] | inhibition at 0.1 ppm [2] [%] | inhibition at 1 ppm [2] [%] | inhibition at 10 ppm [2] [%] | inhibition at 100 ppm [2] [%]
CC(C)N(C)S(=O)(=O)NC(=O)c1cc(-n2c(=O)cc(C(F)(F)F)n(C)c2=O)c(F)cc1Cl [Herbicide E, saflufenacil] | 9 | 45 | 82 | 91 | 0 | 2 | 50 | 84
C#CCN1C(=O)C(F)(F)Oc2cc(F)c(-n3c(=O)n(C)c(=S)n(C)c3=O)cc21 [Herbicide B, trifludimoxazin] | 41 | 100 | 97 | 98 | 87 | 99 | 100 | 100
CCOC(=O)COc1ncccc1Oc1cc(-n2c(=O)cc(C(F)(F)F)n(C)c2=O)c(F)cc1Cl [Herbicide A, epyrifenacil] | 15 | 69 | 99 | 94 | 0 | 11 | 63 | 87
CCOC(=O)C1(C)CC(c2cc(-n3c(=O)cc(C(F)(F)F)n(C)c3=O)c(F)cc2Cl)=NO1 (stereo not drawn) [Herbicide C, 3-(2-chloro-4-fluoro-5-(3-methyl-2,6-dioxo-4-trifluoromethyl-3,6-dihydropyrimidin-1(2H)-yl)phenyl)-5-methyl-4,5-dihydroisoxazole-5-carboxylic acid ethyl ester] |  | 78 | 99 | 97 | 0 | 31 | 81 | 97
CCOC(=O)[C@]1(C)CC(c2cc(-n3c(=O)n(C)c(=S)n(C)c3=O)c(F)cc2Cl)=NO1 [Herbicide D, ethyl (5S)-3-[2-chloro-5-(3,5-dimethyl-2,6-dioxo-4-thioxo-1,3,5-triazinan-1-yl)-4-fluoro-phenyl]-5-methyl-4H-isoxazole-5-carboxylate] | 12 | 42 | 89 | 92 | 0 | 10 | 53 | 83
